Results on 9 compounds are retold here after patent publication US5439885A, “CRF analogs” (The Salk Institute for Biological Studies, priority 1993, dated 1995).

“Also recorded” adds a separate entry of the source. Where two headings read alike, the source gives them in different places. Where a SMILES comes first, the peptide text is derived from it. Where no end group is shown, it is not given here. [ ]: non-standard residue; d: D form. Nle = CCCC[C@H](N)C(=O)O

Assay [1] concerns secretion of ACTH and β-END-LI. The experiment in a line: inhibition of the secretion of ACTH and β-END-LI by CRF antagonists. The class given is in vivo. The following applies: injected peripherally.
Assay [2] in a line: biopotency of CRF analog (test not specified).
Assay [3] has as its system secretion of ACTH and β-END-LI. The following applies: background statement; cited from earlier work.
The test system of assay [4] is cultured rat pituitary cells. The following applies: background statement; cited from earlier work.
For assay [5] the following is noted: background statement; cited from earlier work.
Assay [6] has as its system cultured rat pituitary cells. The class given is cell-based. The method, then: (§1) The synthetic CRF agonist peptides [Ala^20 ]-oCRF and [Ala^39 ]-oCRF are examined for their effects on the secretion of ACTH and β-endorphin in vitro and also in vivo. The potency of synthetic oCRF analogs to stimulate the secretion of ACTH and β-endorphin by cultured rat pituitary cells is measured using the procedure as generally set forth in Endocrinology, 91, 562 (1972) and compared against synthetic oCRF. [Ala^20 ]-oCRF is considered to be about 2 to 4 times as potent as the native hormone. […] In vivo testing which can be carried out using the general procedure set forth in C.

Assay [7] concerns secretion of ACTH and β-END-LI. The experiment in a line: in vivo stimulation of the secretion of ACTH and β-END-LI. The method, then:
as §1

Assay [8] can be described thus: lowering of blood pressure when injected peripherally. The following applies: e.g. intravenously. It counts as in vivo, mammals.
The conditions of assay [9]: CRF in the brain; cited from earlier work.
For a further assay, the system named is rats. Conditions: administered into the ventricles; cited from earlier work.

`CCCC[C@H](NC(=O)[C@H](C)NC(=O)[C@H](CC(C)C)NC(=O)[C@@H](NC(=O)[C@H](CCC(=O)O)NC(=O)[C@H](CCCNC(=N)N)NC(=O)[C@H](CC(C)C)NC(=O)[C@H](CC(C)C)NC(=O)[C@H](Cc1c[nH]cn1)NC(=O)[C@H](N)Cc1ccccc1)C(C)C)C(=O)N[C@@H](C)C(=O)N[C@@H](CCCNC(=N)N)C(=O)N[C@@H](C)C(=O)N[C@@H](CCC(=O)O)C(=O)N[C@@H](CCC(N)=O)C(=O)N[C@@H](CC(C)C)C(=O)N[C@@H](C)C(=O)N[C@@H](CCC(N)=O)C(=O)N[C@@H](CCC(N)=O)C(=O)N[C@@H](C)C(=O)N[C@@H](Cc1c[nH]cn1)C(=O)N[C@@H](CO)C(=O)N[C@@H](CC(N)=O)C(=O)N[C@@H](CCCNC(=N)N)C(=O)N[C@@H](CCCNC(=N)N)C(=O)N[C@@H](CC(C)C)C(=O)N[C@@H](CCCC)C(=O)N[C@@H](C)C(=O)N[C@H](C(=O)N[C@H](C(N)=O)[C@@H](C)CC)[C@@H](C)CC` [IX] (H-[dF]HLLREVLA[Nle]ARAEQLAQQAHSNRRL[Nle]AII-NH2): the “inhibition of the secretion of ACTH and β-END-LI” value in assay [1] is “inhibits the secretion of ACTH and β-END-LI”. In assay [2], the biopotency result is “biopotent”.
“Ser-Gln-Glu-Pro-Pro-Ile-Ser-Leu-Asp-Leu-Thr-phe-His-Leu-Leu-Arg-Glu-Met-Leu-Glu-Met-Ala-Lys-Ala-Glu-Gln-Glu-Ala-Glu-Gln-Ala-Ala-Leu-Asn-Arg-Leu-Leu-Leu-Glu-Glu-Ala (SQEPPISLDLTFHLLREMLEMAKAEQEAEQAALNRLLLEEA) [AHC]”: the “stimulation of ACTH and β-endorphin-like activities (β-END-LI) in vivo” value (“stimulation … in vivo” below) in [3] is “stimulate ACTH and β-endorphin-like activities”. Further, the “stimulation of ACTH and β-endorphin-like activities (β-END-LI) in vitro” value (shortened to “stimulation … in vitro”) in [4] was “stimulate ACTH and β-endorphin-like activities”. The “lowering of blood pressure” value in assay [5] is “substantially lower blood pressure”.
As for “Ser-Gln-Glu-Pro-Pro-Ile-Ser-Leu-Asp-Leu-Thr-Phe-His-Leu-Leu-Arg-Glu-Val-Leu-Glu-Met-Thr-Lys-Ala-Asp-Gln-Leu-Ala-Gln-Gln-Ala-His-Ser-Asn-Arg-Lys-Leu-Leu-Asp-Ile-Ala (SQEPPISLDLTFHLLREVLEMTKADQLAQQAHSNRKLLDIA) [oCRF]”, in [3], the “stimulation … in vivo” value is “stimulates the secretion of ACTH and β-endorphin; also recorded: stimulate ACTH and β-endorphin-like activities”. In addition, the “stimulation … in vitro” value in [4] is “stimulate ACTH and β-endorphin-like activities”. The “lowering of blood pressure” value in [5] was “lowers blood pressure; also recorded: substantially lower blood pressure”.
As for “Ser-Glu-Glu-Pro-Pro-Ile-Ser-Leu-Asp-Leu-Thr-phe-His-Leu-Leu-Arg-Glu-Val-Leu-Glu-Met-Ala-Arg-Ala-Glu-Gln-Leu-Ala-Gln-Gln-Ala-His-Ser-Asn-Arg-Lys-Leu-Met-Glu-Ile-Ile (SEEPPISLDLTFHLLREVLEMARAEQLAQQAHSNRKLMEII) [rCRF]”, the “stimulation … in vivo” value in [3] was “stimulate ACTH and β-endorphin-like activities”. Moreover, in [4], the “stimulation … in vitro” value was “stimulate ACTH and β-endorphin-like activities”. For the same compound, the “lowering of blood pressure” value in assay [5] was “substantially lower blood pressure”.
Consider “SQEPPISLDLTFHLLREVLAMTKADQLAQQAHSNRKLLDIA-NH2 [Example I]”, for which the “potency to stimulate the secretion of ACTH and β-endorphin, times as potent as the native hormone” value in [6] was 2-4 times.
Turning to “SQEPPISLDLTFHLLREVLEMTKADQLAQQAHSNRKLLAIA-NH2 [II]”, the “increase in biopotency in vitro over the native hormone” value in assay [6] is given as approximately 85%.
Turning to “SEEPPISLDLT[dF]HLLREVLA[Nle]ARAEQLAQQAHSNRRL[Nle]AII-NH2 [VIA]”, in assay [7], the “stimulation of the secretion of ACTH and β-END-LI” value was “stimulates the secretion of ACTH and β-END-LI”. In assay [8], the “lowering of blood pressure” value is listed as “significant lowering of blood pressure”. Also, the biopotency result in [2] was “biopotent”.
Turning to “CRF: physiologic corticotropin releasing factor, a hentetracontapeptide; species form not specified at the place (SEEPPISLDLTFHLLREVLEMARAEQLAQQAHSNRKLMEII-NH2; ends and bridges not checked; UniProt P06850 154-194, looked up)”, in [9], the respiratory rate entry is reported as “appears to increase respiratory rate”. In the assay with rats, the activity result is given as “increases activity” and the learning performance entry was “improves learning performance”.
Regarding `CC[C@H](C)[C@H](NC(=O)[C@@H](NC(=O)[C@H](CCC(=O)O)NC(=O)[C@H](CCSC)NC(=O)[C@H](CC(C)C)NC(=O)[C@H](CCCCN)NC(=O)[C@H](CCCNC(=N)N)NC(=O)[C@H](CC(N)=O)NC(=O)[C@H](CO)NC(=O)[C@H](Cc1c[nH]cn1)NC(=O)[C@H](C)NC(=O)[C@H](CCC(N)=O)NC(=O)[C@H](CCC(N)=O)NC(=O)[C@H](C)NC(=O)[C@H](CC(C)C)NC(=O)[C@H](CCC(N)=O)NC(=O)[C@H](CCC(=O)O)NC(=O)[C@H](C)NC(=O)[C@H](CCCNC(=N)N)NC(=O)[C@H](C)NC(=O)[C@H](CCSC)NC(=O)[C@H](C)NC(=O)[C@H](CC(C)C)NC(=O)[C@@H](NC(=O)[C@H](CCC(=O)O)NC(=O)[C@H](CCCNC(=N)N)NC(=O)[C@H](CC(C)C)NC(=O)[C@H](CC(C)C)NC(=O)[C@H](Cc1c[nH]cn1)NC(=O)[C@@H](Cc1ccccc1)NC(=O)[C@@H](NC(=O)[C@H](CC(C)C)NC(=O)[C@H](CC(=O)O)NC(=O)[C@H](CC(C)C)NC(=O)[C@H](CO)NC(=O)[C@@H](NC(=O)[C@@H]1CCCN1C(=O)[C@@H]1CCCN1C(=O)[C@@H](N)CCC(=O)O)[C@@H](C)CC)[C@@H](C)O)C(C)C)[C@@H](C)CC)C(N)=O` [IV] (H-EPPISLDLT[dF]HLLREVLAMARAEQLAQQAHSNRKLMEII-NH2), the “lowering of blood pressure” value in assay [8] is listed as “significant lowering of blood pressure”. Besides, the biopotency entry in assay [2] was “biopotent”.
